Among the data in US20240002388A1, “PYRIMIDINONE COMPOUNDS AND USES THEREOF” (HUTCHISON MEDIPHARMA LIMITED, priority 2020, published 2024) are IC50 values, retold here.

Molecules are shown by their SMILES.

For experiment [1], the system named is L929 cell line (mouse fibroblastoma cell line). The experiment in a line: L929 cell viability assay (mTNF-α + Z-VAD-FMK induced necroptosis). It counts as cell-based. The following applies: Mus musculus, L929, 20 h, L929 cells, mTNF-α 0.1 μg/mL + Z-VAD-FMK 5 μM, CellTiter-Glo. As to the method: L929 cell line (mouse fibroblastoma cell line): purchased from ATCC (American Type Culture Collection) Cell Bank, cultured in 5% CO2, 37° C. incubator, and MEM medium which contains L-Glutamine, with 10% FBS was used. • MEM medium: GIBCO, Cat #11095080; • Fetal bovine serum (FBS): GIBCO, Cat #10099-141C; • Dimethyl sulfoxide (DMSO): Sigma, Cat #D2650; • 0.25% Trypsin-EDTA: GIBCO, Cat #25200072; • Recombinant Mouse TNF-alpha Protein (mTNF-α): R&D system, Cat #410-MT-050; • Pan-Caspase inhibitor (Z-VAD-FMK): Selleckchem, Cat #S7023; • CellTiter-Glo 2.0 Cell Viability Assay kit: Promega, Cat #G9242; • Microwell plate reader: Envision, Perkin Elmer; • 96-well plate: Corning, Cat #3917.
The L929 cells at the logarithmic phase were taken out, and the supernatant was discarded. After trypsinization and cell shedding, 10% FBS-containing medium was added for neutralization, and the supernatant was discarded after centrifugation. The cells were re-suspended using 10% FBS-containing medium, adjusted to 7×10^4 cells/ml, added to 96-well microplate at 70 μL/well, i.e., 4.9×10^3 cells/well. Then the plate was incubated in a 5% CO2, 37° C. cell incubator overnight.
After incubating overnight, the 96-well plate was taken out, the medium was discarded, and the plate was washed with 1% FBS-containing MEM medium. Then 1% FBS-containing MEM medium was added at 70 μL/well, and the plate was cultured in a 5% CO2, 37° C. cell incubator. After incubating for 1 hour, the test compound was diluted to the corresponding concentrations using DMSO with 3-fold serial dilution, then the corresponding concentration of DMSO diluted solution was diluted into 1% FBS-containing MEM medium, and 10 μL/well of the diluted test compound with different concentrations (final concentrations of test compound were 10, 3.33, 1.11, 0.37, 0.12, 0.04, 0.014 and 0.005 μM, while final concentration of DMSO was 0.3%) or 10 μL/well control solution (3% DMSO) were added to the cell culture system respectively, with the total volume being 80 μL/well. Then 10 μL of Z-VAD-FMK solution diluted with 1% FBS-containing MEM medium (final concentration of 5 μM) or 10 μL of control solution (2.5% DMSO) was added to each well, with the total volume being 90 μL/well. The plate was incubated in a 5% CO2, 37° C. cell culture incubator for 1 hour.
After incubating for 1 hour, 10 μL of recombinant mouse TNF-α protein solution diluted with 1% FBS-containing MEM medium (final concentration of 0.1 μg/mL) or 10 μL control solution (1% FBS-containing MEM medium) was added to each well. The plate was incubated in a 5% CO2, 37° C. cell culture incubator for 20 hours.
(§1) The cell culture plate was taken out from the incubator, and left to stand at room temperature for 30 minutes. Meanwhile, CellTiter-Glo viability assay kit was put from freezer to room temperature, and 50 μL of CellTiter-Glo reagent was added to all wells, the plate was shaken for 1 minutes, protected from light at room temperature for 10 minutes then read the plate on Envision to get the luminescence signal.
(§2) The 96-well plate in the dark was taken out, and the chemiluminescence was determined using the Envision microwell plate reader as the signal value of each well.
The mean signal value of the wells of the mixed solution of recombinant mouse TNF-alpha protein (final concentration of 0.1 μg/mL) and Pan-Caspase inhibitor (final concentration of 5 μM) was used as the lower value, and the mean signal value of the wells without stimulation was used as the upper value. According to the signal value of each well, the inhibition rate of each concentration of every compound was calculated, and the IC50 value of compound was obtained by Model 205 in XL-Fit 5.3 software (ID Business Solutions Limited).
(§3) Inhibition rate %=[(Luminescence readout of treated compound−Luminescence readout of positive control)/(Luminescence readout of negative control−Luminescence readout of positive control)]×100%, wherein
Background: Cellular ATP, detected with luciferase, serves as a proxy for viable cell number.

The subject of experiment [2] is U937 cell line (human histiocytic lymphoma cell line). Kind of experiment: U937 cell viability assay (TNF-α + Z-VAD-FMK induced necroptosis). It is filed as cell-based. The following applies: Homo sapiens, U-937; U937 cells, hTNF-α 0.1 μg/mL + Z-VAD-FMK 50 μM, 20 hours, CellTiter-Glo. As for the experimental part: U937 cell line (human histiocytic lymphoma cell line): purchased from ATCC (American Type Culture Collection) Cell Bank, cultured in a 5% CO2, 37° C. incubator, and RPMI 1640 medium which contains L-glutamine, 1.5 g/L sodium bicarbonate, 2.383 g/L HEPES solution, 0.11 g/L sodium pyruvate and 4.5 g/L glucose, plus 10% fetal bovine serum (FBS) was used. • RPMI 1640 medium: GIBCO, Cat #A10491-01; • Fetal bovine serum (FBS): GIBCO, Cat #10099-141C; • Dimethyl sulfoxide (DMSO): Sigma, Cat #D2650; • Recombinant Human TNF-alpha Protein (hTNF-α): R&D system, Cat #210-TA-100; • Pan-Caspase inhibitor (Z-VAD-FMK): Selleckchem, Cat #S7023; • CellTiter-Glo 2.0 Cell Viability Assay kit: Promega, Cat #G9242; • Microwell plate reader: Envision, Perkin Elmer; • 96-well plate: Corning, Cat #3917.
The U937 cells at the logarithmic phase were taken out, centrifuged to remove the medium, washed with PRMI 1640 medium containing 1% FBS, and diluted with 1% FBS-containing RPMI 1640 medium to 2.5×10^5 cells/ml, inoculated at 70 μL/well into a 96-well plate, i.e., 1.75×10^4 cells/well. The plate was cultured in a 5% CO2, 37° C. cell incubator. After incubating for 1 hour, the test compound was diluted to the corresponding concentrations using DMSO with 3-fold serial dilution, then the corresponding concentration of DMSO diluted solution was diluted into 1% FBS-containing RPMI 1640 medium, and 10 μL/well of the diluted test compound with different concentrations (final concentration of test compound was 1.0, 0.333, 0.111, 0.037, 0.012, 0.004, 0.0014 and 0.0005 μM, while final concentration of DMSO was 0.3%) or 10 μL/well control solution (3% DMSO) were added to the cell culture system respectively, with the total volume being 80 μL/well; Then 10 μL of Z-VAD-FMK solution diluted with 1% FBS-containing RPMI 1640 medium (final concentration of 50 μM) or 10 μL of control solution (2.5% DMSO) was added to each well, with the total volume being 90 μL/well. The plate was incubated in a 5% CO2, 37° C. cell culture incubator for 1 hour.
After being cultured for 1 hour, 10 μL of human recombinant TNF-α protein diluted with 1% FBS-containing RPMI 1640 medium (final concentration of 0.1 μg/mL) or 10 μL/well control solution (1% FBS-containing RPMI 1640 medium) was added to each well. The plate was incubated in a 5% CO2, 37° C. cell culture incubator for 20 hours.
as §1, §2
The mean signal value of the wells of the mixed solution of recombinant human TNF-alpha protein (final concentration of 0.1 μg/mL) and Pan-Caspase inhibitor (final concentration of 50 μM) was used as the lower value, and the mean signal value of the wells without stimulation was used as the upper value. According to the signal value of each well, the inhibition rate of each concentration of every compound was calculated, and the IC50 value of compound was obtained by Model 205 in XL-Fit 5.3 software (ID Business Solutions Limited).
as §3

As for `CC(C)n1cncc(-c2ccc(C3(NC(=O)c4nnc(Cc5ccccc5)[nH]4)CC3)cc2)c1=O` [Compound 14], the IC50 (usually the point on the concentration scale where inhibition reaches its midpoint) in experiment [1] was 181 nM; in experiment [2] it was 3 nM.
